One data set has as its target SPase I Δ2-75 (Escherichia coli, UniProt P00803). As to conditions: data not shown.
The target of data set [1] is T1, KAP25 alkaline phosphatase signal peptide signal peptide (Escherichia coli, UniProt P00634 = phosphatase).
T1 chain: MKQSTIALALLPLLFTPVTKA
The data set can be described thus: fluorescence.

Like-named read-outs stand apart in the source and are kept apart here. Ends that are not written are not given here.

As for “KKKMKQSTIALALLPLLFTPVTKARTPEKKK-NH2 [KAP25]”, the “cleavage of KAP25 signal peptide” value at SPase I Δ2-75 (24 hours of incubation with the enzyme) is “about 7%”; at SPase I Δ2-75 (36 hours of incubation with the enzyme) it was around 19%; at SPase I Δ2-75 (48 hours of incubation with the enzyme), around 27%.

B1: Signal peptidase I cytoplasmic domain (protein)
chain: IVRSFIYEPFQIPSGSMMPTLLIGDFILVEKFAYGIKDPIYQKTLIETGHPKRGDIVVFKYPEDPKLDYIKRAVGLPGDKVTYDPVSKELTIQPGCSSGQACENALPVTYSNVEPSDFVQTFSRRNGGEATSGFFEVPKNETKENGIRLSERKETLGDVTHRILTVPIAQDQVGMYYQQPGQQLATWIVPPGQYFMMGDNRDNSADSRYWGFVPEANLVGRATAIWMSFDKQEGEWPTGLRLSRIGGIH
What is called Kd is the equilibrium constant for the complex coming apart. The low end stands for a tighter complex, the high end for a looser complex. As to B1, the Kd in data set [1] was found to be 250 nM.

(Values after article PMC3277640 (Proteins, 2011).)
